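Test compounds were applied to cells in 96-well plates for 48 hours at 5 doses. GI50 = concentration required for 50% inhibition of growth.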 Activity calls are given as the source filed them. Cut-off read from the data, not from the text of the source: active = GI50 up to about 1.1 µM and inactive = higher.
Tests used:
Experiment in all cases: NCI tumour cell line growth inhibition, 48 h
SNB-75 = test system: SNB-75
KM12 = test system: KM12
NCI-H522 = test system: NCI-H522
Malme-3M = test system: Malme-3M
CAKI-1 = test system: CAKI-1
EKVX = test system: EKVX
COLO 205 = test system: COLO 205
NCI-H23 = test system: NCI-H23
HOP-62 = test system: HOP-62
A549 = test system: A549
SK-MEL-5 = test system: SK-MEL-5
RPMI-8226 = test system: RPMI-8226
OVCAR-3 = test system: OVCAR-3
UACC-62 = test system: UACC-62
SK-OV-3 = test system: SK-OV-3

SMILES | GI50 (SNB-75) | GI50 (KM12) | GI50 (NCI-H522) | GI50 (Malme-3M) | GI50 (CAKI-1) | GI50 (EKVX) | GI50 (COLO 205) | GI50 (NCI-H23) | GI50 (HOP-62) | GI50 (A549) | GI50 (SK-MEL-5) | GI50 (RPMI-8226) | GI50 (OVCAR-3) | GI50 (UACC-62) | GI50 (SK-OV-3)
CCCCCCCCCCCC(=O)c1c(O)cccc1O | 16.8 µM (inactive) | 16 µM (inactive) | 18.7 µM (inactive) | 14.6 µM (inactive) | 23.4 µM (inactive) | 19.1 µM (inactive) | 15.3 µM (inactive) | 17.6 µM (inactive) | 17.6 µM (inactive) | 18 µM (inactive) | 13.6 µM (inactive) | 26.7 µM (inactive) | 17.5 µM (inactive) | 19.6 µM (inactive) | 30.8 µM (inactive)
Cc1c(C(=O)Nc2ccc(Cl)c(C(F)(F)F)c2)oc2cc(O)ccc2/c1=N\NC(N)=S | > 100 µM (inactive) | > 100 µM (inactive) | > 100 µM (inactive) | > 100 µM (inactive) | > 100 µM (inactive) | > 100 µM (inactive) | > 100 µM (inactive) | > 100 µM (inactive) | > 100 µM (inactive) | > 100 µM (inactive) | > 100 µM (inactive) | > 100 µM (inactive) | > 100 µM (inactive) | > 100 µM (inactive) | > 100 µM (inactive)
CCC1c2cc3n(c(=O)c2COC1O)Cc1c-3nc2ccccc2c1Cl (centres undefined) | 20.5 µM (inactive) | > 100 µM (inactive) | 5.05 µM (inactive) | > 100 µM (inactive) | 23 µM (inactive) | 66.1 µM (inactive) | > 89.5 µM (inactive) | 28.7 µM (inactive) | 14.8 µM (inactive) | 28.5 µM (inactive) | 29.4 µM (inactive) | > 29.3 µM (inactive) | > 100 µM (inactive) | 6.95 µM (inactive) | > 75 µM (inactive)
COc1nc(OC)c2c(=O)oc(-c3ccccc3)cc2n1 | 53.5 µM (inactive) | > 100 µM (inactive) | > 100 µM (inactive) | > 100 µM (inactive) | > 100 µM (inactive) | > 100 µM (inactive) | – | > 100 µM (inactive) | – | > 100 µM (inactive) | > 100 µM (inactive) | > 100 µM (inactive) | > 10 µM (inactive) | > 100 µM (inactive) | > 100 µM (inactive)
O=C1C=CC(=O)c2nc3c(cc21)CCC3 | 67.5 µM (inactive) | > 100 µM (inactive) | 12.6 µM (inactive) | 17.5 µM (inactive) | 17 µM (inactive) | – | 14.5 µM (inactive) | 25 µM (inactive) | > 100 µM (inactive) | 87.3 µM (inactive) | 20.4 µM (inactive) | – | 17.5 µM (inactive) | 18.6 µM (inactive) | –
c1ccc2c(c1)CCc1c(-c3n[nH]c4c3CCc3ccccc3-4)n[nH]c1-2 | 56.5 µM (inactive) | > 100 µM (inactive) | – | > 100 µM (inactive) | > 100 µM (inactive) | > 100 µM (inactive) | > 100 µM (inactive) | > 100 µM (inactive) | > 100 µM (inactive) | > 100 µM (inactive) | > 100 µM (inactive) | – | > 100 µM (inactive) | > 100 µM (inactive) | > 100 µM (inactive)
CCC1=CC2CN3Cn4c(c(COCc5c6n(c7ccccc57)CN5CC7C=C(CC)C5C6(C(=O)OC)C7)c5ccccc54)C(C(=O)OC)(C2)C13 | – | > 100 µM (inactive) | > 100 µM (inactive) | > 100 µM (inactive) | > 100 µM (inactive) | > 100 µM (inactive) | > 100 µM (inactive) | > 100 µM (inactive) | > 100 µM (inactive) | > 100 µM (inactive) | > 100 µM (inactive) | > 100 µM (inactive) | > 100 µM (inactive) | > 100 µM (inactive) | 92.5 µM (inactive)
Nc1ccc(C(=O)NN2C(=O)C(Cl)C2c2ccc([N+](=O)[O-])cc2)cc1 (centres undefined) | 10.2 µM (inactive) | 10.5 µM (inactive) | 1.73 µM (inactive) | 12.1 µM (inactive) | 20 µM (inactive) | 7.59 µM (inactive) | 14.8 µM (inactive) | 7 µM (inactive) | 11 µM (inactive) | 11.9 µM (inactive) | 15.5 µM (inactive) | 15.4 µM (inactive) | 3.71 µM (inactive) | 8.59 µM (inactive) | 14.1 µM (inactive)
O=c1c2cc(Br)ccc2n(C2OC(CO)C(O)C(O)C2O)c(=S)n1-c1ccccc1 (centres undefined) | 68.1 µM (inactive) | > 100 µM (inactive) | > 100 µM (inactive) | > 100 µM (inactive) | – | > 100 µM (inactive) | > 100 µM (inactive) | > 100 µM (inactive) | > 100 µM (inactive) | > 100 µM (inactive) | – | > 100 µM (inactive) | > 100 µM (inactive) | – | –
Cc1ccc([S+](c2ccccc2)c2cc(C)ccc2C)cc1 (centres undefined) | < 0.01 µM (active) | 2.85 µM (inactive) | 3.13 µM (inactive) | 0.271 µM (active) | 26.7 µM (inactive) | 1.17 µM (inactive) | 2.99 µM (inactive) | – | 15.1 µM (inactive) | 7.03 µM (inactive) | 0.53 µM (active) | 3.66 µM (inactive) | 2.26 µM (inactive) | 4.52 µM (inactive) | –
COc1cccc(C(=O)O)c1Cc1cccc2ccccc12 | > 100 µM (inactive) | > 100 µM (inactive) | > 100 µM (inactive) | > 100 µM (inactive) | > 100 µM (inactive) | > 100 µM (inactive) | > 100 µM (inactive) | > 100 µM (inactive) | > 100 µM (inactive) | > 100 µM (inactive) | > 100 µM (inactive) | – | > 100 µM (inactive) | > 100 µM (inactive) | > 100 µM (inactive)
CN(C)CCNC(=O)c1cccc2ccc(-c3ccncc3)nc12 | 3.2 µM (inactive) | 3.67 µM (inactive) | – | – | 1.52 µM (inactive) | 2.47 µM (inactive) | 1.3 µM (inactive) | 1.8 µM (inactive) | 1.66 µM (inactive) | 0.817 µM (active) | 1.55 µM (inactive) | – | 2.78 µM (inactive) | 1.8 µM (inactive) | 2.22 µM (inactive)
CN(C)c1ccc(C(C=C2c3ccccc3Sc3ccccc32)=C(C#N)C#N)cc1 | 17.1 µM (inactive) | > 100 µM (inactive) | – | > 100 µM (inactive) | 65.9 µM (inactive) | > 100 µM (inactive) | > 100 µM (inactive) | > 100 µM (inactive) | 93.8 µM (inactive) | > 100 µM (inactive) | > 100 µM (inactive) | > 100 µM (inactive) | 45.7 µM (inactive) | 57.4 µM (inactive) | > 100 µM (inactive)
CCOC(=O)/C(=C\c1ccccc1)C(=O)O | – | > 100 µM (inactive) | > 100 µM (inactive) | > 100 µM (inactive) | > 100 µM (inactive) | > 100 µM (inactive) | > 100 µM (inactive) | > 100 µM (inactive) | > 100 µM (inactive) | > 100 µM (inactive) | > 100 µM (inactive) | > 100 µM (inactive) | > 100 µM (inactive) | > 100 µM (inactive) | > 100 µM (inactive)
CC1=C[C@H]2c3c([nH]c4ccccc34)C(c3c[nH]c4ccccc34)[C@H]2CC1 (some centres undefined) | 6.44 µM (inactive) | – | 5.87 µM (inactive) | 18.5 µM (inactive) | 12.9 µM (inactive) | 12.4 µM (inactive) | 3.41 µM (inactive) | 3.33 µM (inactive) | – | 10.1 µM (inactive) | 11.9 µM (inactive) | 3.24 µM (inactive) | – | 10.6 µM (inactive) | 13.7 µM (inactive)
CCC12C=CCN3CC[C@]4(C(=C(C(=O)OC)[C@@H]1Nc1ccn(C5OC(COC(C)=O)C(OC(C)=O)C5OC(C)=O)c(=O)n1)Nc1ccccc14)C32 (some centres undefined) | 3.95 µM (inactive) | 1.32 µM (inactive) | 3.84 µM (inactive) | 4.78 µM (inactive) | 5.37 µM (inactive) | 5.81 µM (inactive) | 4.59 µM (inactive) | 1.62 µM (inactive) | 4.93 µM (inactive) | 5.9 µM (inactive) | 4.5 µM (inactive) | 5.46 µM (inactive) | 4.37 µM (inactive) | 3.47 µM (inactive) | 4.93 µM (inactive)
CO[C@H](C(=O)O[C@H]1C(=O)N2CC[C@@H]3CCC[C@H]1C32C)c1ccccc1 (some centres undefined) | – | > 100 µM (inactive) | 66.2 µM (inactive) | > 100 µM (inactive) | > 100 µM (inactive) | > 100 µM (inactive) | > 100 µM (inactive) | > 100 µM (inactive) | > 100 µM (inactive) | > 100 µM (inactive) | > 100 µM (inactive) | > 100 µM (inactive) | > 100 µM (inactive) | > 100 µM (inactive) | > 100 µM (inactive)
O=C(/C=C/c1ccc[nH]1)c1ccccc1 | 29.6 µM (inactive) | > 100 µM (inactive) | > 100 µM (inactive) | > 100 µM (inactive) | > 100 µM (inactive) | – | > 100 µM (inactive) | > 100 µM (inactive) | > 100 µM (inactive) | > 100 µM (inactive) | > 100 µM (inactive) | 95.9 µM (inactive) | > 100 µM (inactive) | > 100 µM (inactive) | > 100 µM (inactive)
Nc1n[n+]([O-])c2ccccc2[n+]1[O-] [TIRAPAZAMINE] | 29.6 µM (inactive) | > 100 µM (inactive) | 99.8 µM (inactive) | 50.4 µM (inactive) | 46.2 µM (inactive) | > 100 µM (inactive) | > 100 µM (inactive) | – | 53.1 µM (inactive) | 93.5 µM (inactive) | 40.5 µM (inactive) | 57.4 µM (inactive) | > 100 µM (inactive) | 61.7 µM (inactive) | 73.1 µM (inactive)

— ChEMBL document CHEMBL1201862, “PubChem BioAssay data set” (2004)
